Test results taken from US11292801B2, “Calpain modulators and therapeutic uses thereof” (Blade Therapeutics, Inc., priority 2016, dated 2022).

Experiments:
[1] = biological target: T1, Human Calpain 2/NS1 (Homo sapiens, UniProt P17655); assay: Biochemical inhibition of calpain 2, continuous fluorescence (FRET substrate) assay; conditions: mean, read-out: Human Calpain 2/NS1 IC50 (nM)_MEAN
T1 sequence (P17655 1-700): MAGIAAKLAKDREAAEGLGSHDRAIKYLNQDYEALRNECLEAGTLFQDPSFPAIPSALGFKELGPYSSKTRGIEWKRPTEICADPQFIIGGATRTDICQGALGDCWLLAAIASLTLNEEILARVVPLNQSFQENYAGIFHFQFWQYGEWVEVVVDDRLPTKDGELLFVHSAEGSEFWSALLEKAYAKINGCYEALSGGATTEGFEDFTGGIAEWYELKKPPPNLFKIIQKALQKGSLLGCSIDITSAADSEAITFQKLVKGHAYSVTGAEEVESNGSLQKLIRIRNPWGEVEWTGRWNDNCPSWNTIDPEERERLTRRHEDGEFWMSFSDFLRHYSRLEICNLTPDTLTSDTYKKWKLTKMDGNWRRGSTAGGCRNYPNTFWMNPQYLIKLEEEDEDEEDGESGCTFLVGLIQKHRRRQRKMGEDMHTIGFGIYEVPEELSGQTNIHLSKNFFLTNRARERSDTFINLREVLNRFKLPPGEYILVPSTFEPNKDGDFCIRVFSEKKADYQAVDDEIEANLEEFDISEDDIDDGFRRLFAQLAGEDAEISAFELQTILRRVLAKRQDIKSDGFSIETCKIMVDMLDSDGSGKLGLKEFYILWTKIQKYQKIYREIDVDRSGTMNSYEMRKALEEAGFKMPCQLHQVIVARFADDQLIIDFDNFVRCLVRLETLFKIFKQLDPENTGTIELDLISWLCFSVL
T1 sequence (P04632 1-268 partner): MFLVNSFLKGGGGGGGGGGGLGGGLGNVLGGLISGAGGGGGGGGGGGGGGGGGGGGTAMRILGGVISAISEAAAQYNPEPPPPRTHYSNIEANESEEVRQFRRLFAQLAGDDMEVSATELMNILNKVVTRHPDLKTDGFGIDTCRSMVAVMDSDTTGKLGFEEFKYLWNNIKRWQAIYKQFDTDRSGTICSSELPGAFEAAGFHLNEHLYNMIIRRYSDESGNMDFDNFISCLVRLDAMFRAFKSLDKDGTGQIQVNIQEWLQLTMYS
How it was run: (§1)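 Continuous FRET assay with 5-FAM/QXL520 peptide substrate in 50 mM Tris pH ~7.5, 100 mM NaCl, 1 mM DTT. Enzyme preincubated with inhibitor at 25C; reaction started with substrate plus CaCl2, read at 490/520 nm for 10 min. Rates from slopes over 1-5 min, IC50 from 4-parameter logistic fit.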

[2] = biological target: T2, Human Calpain 1/NS1 (Homo sapiens, UniProt P07384); assay: Biochemical inhibition of calpain 1, continuous fluorescence (FRET substrate) assay; conditions: mean, read-out: Human Calpain 1/NS1 IC50 (nM)_MEAN
T2 sequence (P07384 1-714): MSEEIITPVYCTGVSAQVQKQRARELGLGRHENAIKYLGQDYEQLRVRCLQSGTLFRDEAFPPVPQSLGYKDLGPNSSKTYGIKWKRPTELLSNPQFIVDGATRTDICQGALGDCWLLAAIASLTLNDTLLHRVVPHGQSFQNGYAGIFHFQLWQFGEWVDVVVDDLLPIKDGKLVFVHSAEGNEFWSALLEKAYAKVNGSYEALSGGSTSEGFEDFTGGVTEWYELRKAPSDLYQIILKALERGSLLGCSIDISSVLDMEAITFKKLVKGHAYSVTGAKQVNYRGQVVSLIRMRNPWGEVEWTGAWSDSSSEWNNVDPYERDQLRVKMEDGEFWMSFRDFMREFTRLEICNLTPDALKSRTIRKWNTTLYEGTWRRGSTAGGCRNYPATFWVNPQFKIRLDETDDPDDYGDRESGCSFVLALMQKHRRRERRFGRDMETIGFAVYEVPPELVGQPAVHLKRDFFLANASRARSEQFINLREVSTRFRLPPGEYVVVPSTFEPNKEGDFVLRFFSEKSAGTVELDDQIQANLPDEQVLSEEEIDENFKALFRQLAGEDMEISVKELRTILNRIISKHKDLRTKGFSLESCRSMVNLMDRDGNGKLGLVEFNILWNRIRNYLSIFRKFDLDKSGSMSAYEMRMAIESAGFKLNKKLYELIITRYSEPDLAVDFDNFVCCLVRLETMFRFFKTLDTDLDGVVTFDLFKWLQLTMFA
T2 sequence (P04632 1-268 partner): T1 sequence (P04632 1-268 partner)
How it was run: as §1

[3] = biological target: T3, Human Calpain 9/NS1 (Homo sapiens, UniProt O14815); assay: Biochemical inhibition of calpain 9, continuous fluorescence (FRET substrate) assay; conditions: mean, read-out: Human Calpain 9/NS1 IC50 (nM)_MEAN
T3 sequence (O14815 1-690): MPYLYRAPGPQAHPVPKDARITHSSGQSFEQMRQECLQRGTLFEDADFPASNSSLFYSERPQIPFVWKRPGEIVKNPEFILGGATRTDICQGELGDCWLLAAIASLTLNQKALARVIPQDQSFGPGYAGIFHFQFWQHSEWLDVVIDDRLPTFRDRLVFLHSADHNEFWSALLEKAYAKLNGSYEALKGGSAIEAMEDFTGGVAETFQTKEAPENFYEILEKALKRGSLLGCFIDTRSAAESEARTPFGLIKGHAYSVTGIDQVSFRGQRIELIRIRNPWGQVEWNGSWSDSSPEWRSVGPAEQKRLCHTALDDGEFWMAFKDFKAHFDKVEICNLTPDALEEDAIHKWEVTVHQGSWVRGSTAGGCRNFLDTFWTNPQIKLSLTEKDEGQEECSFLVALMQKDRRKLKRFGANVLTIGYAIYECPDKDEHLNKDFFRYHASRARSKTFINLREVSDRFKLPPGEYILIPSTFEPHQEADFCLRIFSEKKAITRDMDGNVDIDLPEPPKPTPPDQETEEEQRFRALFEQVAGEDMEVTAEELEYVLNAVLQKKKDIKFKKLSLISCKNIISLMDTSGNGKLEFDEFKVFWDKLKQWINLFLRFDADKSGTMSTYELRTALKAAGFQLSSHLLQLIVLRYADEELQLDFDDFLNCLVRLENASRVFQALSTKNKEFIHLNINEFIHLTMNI
T3 sequence (P04632 1-268 partner): T1 sequence (P04632 1-268 partner)
How it was run: as §1

| SMILES | IC50 [1] [nM] | IC50 [2] [nM] | IC50 [3] [nM] |
| --- | --- | --- | --- |
| O=C[C@@H]1CCCCCCCCCCc2ccccc2C(=O)N1 [Compound 28, (S)-1-Oxo-2,3,4,5,6,7,8,9,10,11,12,13-dodecahydro-1h-benzo[c][1]aza-cyclopentadecine-3-carbaldehyde] | < 3000 | < 3000 | < 3000 |
| CCOc1ccccc1CNC(=O)C(=O)C1CCCCOCCOCc2ccccc2C(=O)N1 (stereo not drawn) [Compound 102, N-(2-ethoxybenzyl)-2-oxo-2-(12-oxo-1,3,4,6,7,8,9,10,11,12-decahydrobenzo[f][1,4]dioxa[9]azacyclotetradecin-10-yl)acetamide] | < 3000 | 3000 to 10000 | < 3000 |
| O=C[C@@H]1CC=CCOCCn2ccc3cccc(c32)C(=O)N1 [Compound 9] | < 3000 | > 10000 | < 3000 |
| O=C(NCc1ccccc1)C(=O)[C@@H]1C/C=C\COCCOCc2ccccc2C(=O)N1 [Compound 3, (S,Z)—N-benzyl-2-oxo-2-(12-oxo-1,3,4,6,9,10,11,12-octahydrobenzo[f][1,4]dioxa[9]azacyclotetradecin-10-yl)acetamide] | > 10000 | > 10000 | < 3000 |
| O=C(NCCc1cccnc1)C(=O)C1CCCCOCCOCc2ccccc2C(=O)N1 (stereo not drawn) [Compound 101, 2-Oxo-2-(12-oxo-1,3,4,6,7,8,9,10,11,12-decahydrobenzo[f][1,4]dioxa[9]aza-cyclotetradecin-10-yl)-N-(2-(pyridin-3-yl)ethyl)acetamide] | > 10000 | > 10000 | 3000 to 10000 |
| O=C(NCc1c(F)cccc1Cl)C(=O)C1CCCCOCCOCc2ccccc2C(=O)N1 (stereo not drawn) [Compound 107] | > 10000 | > 10000 | 3000 to 10000 |
| NS(=O)(=O)c1ccc(CNC(=O)C(=O)C2CCCCOCCOCc3ccccc3C(=O)N2)cc1 (stereo not drawn) [Compound 84, 2-Oxo-2-(12-oxo-1,3,4,6,7,8,9,10,11,12-decahydrobenzo[f][1,4]dioxa[9]aza-cyclotetradecin-10-yl)-N-(4-sulfamoylbenzyl)acetamide] | 3000 to 10000 | > 10000 | < 3000 |
| NC(=O)C(O)[C@@H]1CCCCCOc2ccnc(n2)-c2ccccc2C(=O)N1 (stereo partly drawn) [Compound 147] | > 10000 | > 10000 | > 10000 |
| O=C(NCc1cccnc1)C(=O)C1CCCCOCCOCc2ccccc2C(=O)N1 (stereo not drawn) [Compound 103, 2-Oxo-2-(12-oxo-1,3,4,6,7,8,9,10,11,12-decahydrobenzo[f][1,4]dioxa[9]aza-cyclotetradecin-10-yl)-N-(pyridin-3-ylmethyl)acetamide] | > 10000 | > 10000 | < 3000 |
| O=C(NCCc1ccc(Cl)cc1)C(=O)[C@@H]1CCCCOCCOCc2ccccc2C(=O)N1 [Compound 128, (S)—N-(4-chlorophenethyl)-2-oxo-2-(12-oxo-1,3,4,6,7,8,9,10,11,12-decahydrobenzo[f][1,4]dioxa[9]azacyclotetradecin-10-yl)acetamide] | < 3000 | 3000 to 10000 | < 3000 |
| O=C[C@@H]1Cc2ccccc2C=CCCCCOc2ccccc2C(=O)N1 [Compound 13, (S)-19-Oxo-6,7,8,9,16,17,18,19-octahydrodibenzo[b,h][1]oxa[5]aza-cyclopentadecine-17-carbaldehyde] | < 3000 | 3000 to 10000 | 3000 to 10000 |
| O=C(NCc1ccccc1)C(=O)[C@@H]1C/C=C/COCCOCc2ccccc2C(=O)N1 [Compound 4, (S,E)-N-benzyl-2-oxo-2-(12-oxo-1,3,4,6,9,10,11,12-octahydrobenzo[f][1,4]dioxa[9]azacyclotetradecin-10-yl)acetamide] | 3000 to 10000 | > 10000 | < 3000 |
| O=C(NCc1ccc(Cl)c(Cl)c1)C(=O)C1CCCCOCCOCc2ccccc2C(=O)N1 (stereo not drawn) [Compound 83, N-(3,4-dichlorobenzyl)-2-oxo-2-(12-oxo-1,3,4,6,7,8,9,10,11,12-decahydrobenzo[f][1,4]dioxa[9]azacyclotetradecin-10-yl)acetamide] | 3000 to 10000 | > 10000 | < 3000 |
| COc1cc(CNC(=O)C(=O)C2CCCCOCCOCc3ccccc3C(=O)N2)cc(OC)c1 (stereo not drawn) [Compound 119, N-(3,5-dimethoxybenzyl)-2-oxo-2-(12-oxo-1,3,4,6,7,8,9,10,11,12-decahydrobenzo[f][1,4]dioxa[9]azacyclotetradecin-10-yl)acetamide] | 3000 to 10000 | > 10000 | < 3000 |
| O=C(NCc1ccccc1)C(=O)[C@@H]1CC=CCCCCOc2ccccc2C(=O)N1 [Compound 7, (S)—N-benzyl-2-oxo-2-(11-oxo-2,3,4,5,8,9,10,11-octahydrobenzo[b][1]oxa[5]azacyclotridecin-9-yl)acetamide] | > 10000 | > 10000 | 3000 to 10000 |
| O=C(NC1CC1)C(=O)C1CCCCOCCOCc2ccccc2C(=O)N1 (stereo not drawn) [Compound 114, N-cyclopropyl-2-oxo-2-(12-oxo-1,3,4,6,7,8,9,10,11,12-decahydrobenzo[f][1,4]dioxa[9]azacyclotetradecin-10-yl)acetamide] | > 10000 | > 10000 | > 10000 |
| O=C(NC1CC1)C(=O)[C@@H]1Cc2ccc(cc2)CCCCc2cccc(c2)-c2ccn(n2)-c2ncccc2C(=O)N1 [Compound 74, N-cyclopropyl-2-oxo-2-((10S,E)-12-oxo-2′H-11-aza-1(2,3)-pyridina-2(1,3)-pyrazola-3(1,3),8(1,4)-dibenzenacyclododecaphane-10-yl)acetamide] | < 3000 | < 3000 | < 3000 |
| COc1ccc(CNC(=O)C(=O)C2CCCCOCCOCc3ccccc3C(=O)N2)c(OC)c1 (stereo not drawn) [Compound 99, N-(2,4-dimethoxybenzyl)-2-oxo-2-(12-oxo-1,3,4,6,7,8,9,10,11,12-decahydrobenzo[f][1,4]dioxa[9]azacyclotetradecin-10-yl)acetamide] | 3000 to 10000 | > 10000 | 3000 to 10000 |
